Source: patent US9296722B2, “Azolyl urea compounds and methods of use thereof” (Ambit Biosciences Corporation, priority 2010, dated 2016)

How the values were obtained:
[1] = biological target: kinase panel containing either 359 or 386 distinct kinases; experiment: Competition binding assay, selectivity score (S10) against a panel of kinases; settings: compounds at 10 μM; fraction of kinases with percent of control less than 10
Experimental: Competition binding assays used herein were developed, validated and performed as described in Fabian et al., Nature Biotechnology 2005, 23, 329-336. Kinases were produced as fusions to T7 phage (See, Fabian et al. or WO04/015142) or alternatively, the kinases were expressed in HEK-293 cells and subsequently tagged with DNA for PCR detection (See, WO08/005,310). […] The liganded beads were blocked with excess biotin and washed with blocking buffer (SeaBlock (Pierce), 1% BSA, 0.05% Tween 20, 1 mM DTT) to remove unbound ligand and to reduce non-specific binding. […] Test compounds were prepared as 100× stocks in DMSO and diluted into the aqueous environment. Kds were determined using an eleven point threefold serial dilutions. DMSO or control compounds were was added to control assays lacking a test compound. Primary screen assays were performed in polypropylene 384-well plates in a final volume of 20-40 μL, while Kd determinations were performed in polystyrene 96-well plates in a final volume of […]. […] The kinase concentration in the eluates was measured by quantitative PCR.
A selectivity score (S10) is a quantitative measure of selectivity of a compound against a panel of kinases. An S10 was calculated for a compound by dividing the number of kinases found to have a percent of control (DMSO) less than 10 by the total number of distinct kinases tested (excluding mutant variants). Percent of control (POC) is calculated by subtracting the signal of the control compound
(POC=0) from the signal of the test compound and dividing the outcome by the signal of DMSO (POC=100) minus the signal of the control compound. For the compounds disclosed herein, S10 scores were obtained by testing the compounds at 10 μM concentration in a kinase panel containing either 359 or 386 distinct kinases.

CSF1R (human) = biological target: T1, CSF1R (human) (Homo sapiens, UniProt P07333); experiment: Competition binding assay, CSF1R (human) Kd
T1 construct: made in house; host or cells: T7 phage display or HEK-293 cells (alternatives, not resolved per kinase)
Experimental: The liganded beads were blocked with excess biotin and washed with blocking buffer (SeaBlock (Pierce), 1% BSA, 0.05% Tween 20, 1 mM DTT) to remove unbound ligand and to reduce non-specific binding. […] Test compounds were prepared as 100× stocks in DMSO and diluted into the aqueous environment. Kds were determined using an eleven point threefold serial dilutions. DMSO or control compounds were was added to control assays lacking a test compound. […] The kinase concentration in the eluates was measured by quantitative PCR.

M-NFS-60 cells = experiment: M-NFS-60 cell proliferation assay; type: cell-based, mouse; parameters: CSF1R Cell Proliferation (M-NFS-60) IC50 (nM): scale not given here; settings: 72 hours incubation, Alamar Blue, M-CSF-dependent cells; for IC50: Mus musculus, read-out: CSF1R Cell Proliferation (M-NFS-60) IC50
Experimental: In certain embodiments, the compounds disclosed herein are tested in an M-NFS-60 cell proliferation assay to determine their cellular potency against CSF-1R. M-NFS-60s are mouse monocytic cells that depend on the binding of the ligand M-CSF to its receptor, CSF-1R, to proliferate Inhibition of CSF-1R kinase activity will cause reduced growth and/or cell death. This assay assesses the potency of compounds as CSF-1R inhibitors by measuring the reduction of Alamar Blue reagent by viable cells. An exemplary assay is described in the Examples section.
The compounds disclosed herein were tested in an M-NFS-60 cell proliferation assay to determine their cellular potency against CSF1R. M-NFS-60s are mouse monocytic cells that depend on the binding of the ligand M-CSF to its receptor, CSF1R, to proliferate Inhibition of CSF1R kinase activity will cause reduced growth and/or cell death. This assay assesses the potency of compounds as CSF1R inhibitors by measuring the reduction of Alamar Blue reagent by viable cells.
On day one of the experiment, M-NFS-60 cells were maintained in RPMI complete medium (Omega Scientific) plus 10% FBS supplemented with 20 ng/mL of M-CSF (R&D Systems). 96-well TC-treated, flat bottom plates were seeded at 10,000 cell/well at a volume of 100 μL per well. The cells were cultured overnight at 37° C. under 5% CO2.
On day two, compounds were added to the cells at 9 different concentrations, with half-log intervals alongside a control reference compound serving as a positive control. Final DMSO concentration was kept at 0.5% for a final volume of 200 μL. The compounds were allowed to incubate with the cells for 72 hours at 37° C. under 5% CO2.
On day five of the experiment, 40 μl of Alamar Blue reagent was added to each well and allowed to incubate for 3 hours. Alamar Blue fluorescence was read using SoftMax Pro software at 560 nm (excitation) and 590 nm (emission). IC50s were generated as an average of duplicates and represents the concentration of test compound that achieves 50% inhibition of cellular proliferation compared to control.

T1 sequence (P07333 20-972): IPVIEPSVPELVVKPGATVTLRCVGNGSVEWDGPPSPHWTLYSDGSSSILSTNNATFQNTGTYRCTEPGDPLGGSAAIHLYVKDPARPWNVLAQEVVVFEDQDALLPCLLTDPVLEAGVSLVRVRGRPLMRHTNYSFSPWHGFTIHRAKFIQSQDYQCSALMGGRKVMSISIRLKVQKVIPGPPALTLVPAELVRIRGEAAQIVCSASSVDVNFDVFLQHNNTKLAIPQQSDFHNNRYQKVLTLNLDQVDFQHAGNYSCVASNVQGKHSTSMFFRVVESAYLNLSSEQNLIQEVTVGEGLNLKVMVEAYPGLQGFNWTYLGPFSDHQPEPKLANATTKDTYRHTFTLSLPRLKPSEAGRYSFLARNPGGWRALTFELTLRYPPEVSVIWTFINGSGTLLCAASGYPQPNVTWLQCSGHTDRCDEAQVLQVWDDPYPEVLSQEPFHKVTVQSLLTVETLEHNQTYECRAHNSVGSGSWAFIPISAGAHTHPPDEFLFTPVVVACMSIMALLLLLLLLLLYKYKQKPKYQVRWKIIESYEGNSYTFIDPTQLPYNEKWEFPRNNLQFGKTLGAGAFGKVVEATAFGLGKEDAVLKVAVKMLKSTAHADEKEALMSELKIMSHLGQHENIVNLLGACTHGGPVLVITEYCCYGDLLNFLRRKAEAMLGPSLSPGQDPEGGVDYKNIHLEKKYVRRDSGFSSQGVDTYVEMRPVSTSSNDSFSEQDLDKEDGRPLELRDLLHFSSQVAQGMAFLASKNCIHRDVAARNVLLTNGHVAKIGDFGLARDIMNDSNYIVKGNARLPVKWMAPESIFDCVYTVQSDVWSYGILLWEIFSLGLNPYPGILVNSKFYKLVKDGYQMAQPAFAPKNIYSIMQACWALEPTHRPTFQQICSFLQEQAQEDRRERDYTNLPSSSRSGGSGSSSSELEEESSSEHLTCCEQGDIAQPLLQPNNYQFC

Kinase Specificity (S10) [1] | Kd (CSF1R (human)) | SMILES | IC50 (M-NFS-60 cells) | CSF1R Cell Proliferation (M-NFS-60) IC50 (nM) (M-NFS-60 cells)
C (C > 0.05) | < 3 nM | CN1C(C)(C)CC(Oc2ccc(C(=O)Nc3ccc(NC(=O)Nc4cc(C(C)(C)C)on4)cc3)nn2)CC1(C)C | 250 to 1000 nM | 
C (C > 0.05) | < 3 nM | CC(C)N1CCC(Oc2ccc(C(=O)Nc3ccc(N(C)C(=O)Nc4cc(C(C)(C)C)on4)cc3)nc2)C1 (stereo not shown) | 100 to 250 nM | 
C (C > 0.05) | < 3 nM | CC(C)(C)c1cc(NC(=O)Nc2ccc(NC(=O)c3ccc(OC[C@H]4CCCN5CCCC[C@@H]45)cn3)cc2)no1 | ≤ 100 nM | 
B (0.03 < B ≦ 0.05) | 3 to 10 nM | CN1C(C)(C)CC(Oc2ccc(C(=O)Nc3ccc(NC(=O)Nc4cc(C(C)(C)C(F)(F)F)on4)cc3)nc2)CC1(C)C | ≤ 100 nM | 
B (0.03 < B ≦ 0.05) | < 3 nM | CCN1CCC(Oc2ccc(C(=O)Nc3ccc(NC(=O)Nc4cc(C(C)(C)C)on4)cc3)nc2)C1 (stereo not shown) | ≤ 100 nM | 
B (0.03 < B ≦ 0.05) | 3 to 10 nM | CN1C(C)(C)CC(Oc2ccc(C(=O)Nc3ccc(NC(=O)Nc4cc(C(C)(C)C)nn4C)cc3)nc2)CC1(C)C | 100 to 250 nM | 
B (0.03 < B ≦ 0.05) | 3 to 10 nM | CN1C(C)(C)CC(Oc2ccc(C(=O)Nc3ccc(NC(=O)Nc4cc(C(C)(C)C)no4)cc3)nc2)CC1(C)C | ≤ 100 nM | 
B (0.03 < B ≦ 0.05) | 3 to 10 nM | CN1C(COc2ccc(C(=O)Nc3ccc(NC(=O)Nc4cc(C(C)(C)C)on4)cc3)nc2)CCC1(C)C (stereo not shown) | ≤ 100 nM | 
C (C > 0.05) | < 3 nM | CC(C)N1CC[C@H](Oc2ccc(C(=O)Nc3ccc(NC(=O)Nc4cc(C(C)(C)C)on4)cc3)nc2)C1 | ≤ 100 nM | 
A (A ≦ 0.03) | < 3 nM | CCN1CCC(Oc2ccc(C(=O)Nc3ccc(NC(=O)Nc4cc(C(C)(C)F)no4)cc3)nc2)CC1 |  | A/B
B (0.03 < B ≦ 0.05) | 3 to 10 nM | CC(C)N1CCC(Oc2ccc(C(=O)Nc3ccc(NC(=O)Nc4cc(C(C)(C)C)no4)cc3)nc2)CC1 | ≤ 100 nM | 
B (0.03 < B ≦ 0.05) | < 3 nM | CN1C(C)(C)CC(Oc2ccc(C(=O)Nc3ccc(NC(=O)Nc4cc(C(C)(CF)CF)on4)cc3)nc2)CC1(C)C | ≤ 100 nM | 
A (A ≦ 0.03) | < 3 nM | CN1C(C)(C)CC(=O)C(c2ccc(C(=O)Nc3ccc(NC(=O)Nc4cc(C(C)(C)C)on4)cc3)nc2)C1(C)C (stereo not shown) | 100 to 250 nM | 
C (C > 0.05) | < 3 nM | CCN1CCC(Oc2ccc(C(=O)Nc3ccc(NC(=O)Nc4cc(C(C)(C)C(F)(F)F)on4)cc3)nc2)CC1 | ≤ 100 nM | 
C (C > 0.05) | < 3 nM | CC(C)N1CC[C@@H](COc2ccc(C(=O)Nc3ccc(NC(=O)Nc4cc(C(C)(C)C)on4)cc3)nc2)C1 | ≤ 100 nM | 
C (C > 0.05) | < 3 nM | CC(C)N1CCC(Oc2ccc(C(=O)Nc3ccc(NC(=O)Nc4cc(C(C)(C)C(F)(F)F)on4)cc3)nc2)CC1 | ≤ 100 nM | 
B (0.03 < B ≦ 0.05) | < 3 nM | CC(C)(C)c1cc(NC(=O)Nc2ccc(NC(=O)c3ccc(OC4CCN(C5COC5)C4)cn3)cc2)no1 (stereo not shown) | ≤ 100 nM | 
B (0.03 < B ≦ 0.05) | 3 to 10 nM | CCN1CCC(Oc2ccc(C(=O)Nc3ccc(NC(=O)Nc4cc(C(C)(C)C)no4)cc3)nc2)CC1 | ≤ 100 nM | 
B (0.03 < B ≦ 0.05) | < 3 nM | CC(C)N1CCC(Oc2ccc(C(=O)Nc3ccc(NC(=O)Nc4cc(C(C)(C)C)on4)cc3)nc2)C1 (stereo not shown) | ≤ 100 nM | 

The next lines start with the compound.

SMILES | Kinase Specificity (S10) [1] | Kd (CSF1R (human)) | IC50 (M-NFS-60 cells) | CSF1R Cell Proliferation (M-NFS-60) IC50 (nM) (M-NFS-60 cells)
CC(C)(C)c1cc(NC(=O)Nc2ccc(NC(=O)c3cc(OC4CCNCC4)ccn3)cc2)no1 | B (0.03 < B ≦ 0.05) |  |  | 
CCN1CCC(c2ccc(C(=O)Nc3ccc(NC(=O)Nc4cc(C(C)(C)C)on4)cc3)nc2)CC1 | B (0.03 < B ≦ 0.05) |  |  | 
Cc1cc(NC(=O)c2ccc(OC3CC(C)(C)N(C)C(C)(C)C3)cn2)ccc1NC(=O)Nc1cc(C(C)(C)C)on1 | B (0.03 < B ≦ 0.05) | < 3 nM | 100 to 250 nM | 
CN1C(C)(C)CC(Oc2ccc(C(=O)Nc3cccc(CNC(=O)Nc4cc(C(C)(C)C)on4)c3)nc2)CC1(C)C | C (C > 0.05) | > 10 nM | > 1000 nM | 
CC(C)(C)c1cc(NC(=O)Nc2ccc(NC(=O)c3ccc(OC4CCN(C5CC5)CC4)cn3)cc2)no1 | A (A ≦ 0.03) |  |  | 
CCN1CCC(Cc2ccc(C(=O)Nc3ccc(NC(=O)Nc4cc(C(C)(C)C)on4)cc3)nc2)CC1 | B (0.03 < B ≦ 0.05) |  |  | 
CC(C)(C)c1cc(NC(=O)Nc2ccc(NC(=O)c3ccc(OC4CN5CCC4CC5)cn3)cc2)no1 (stereo not shown) | C (C > 0.05) | < 3 nM | ≤ 100 nM | 
CCN1CCC(Oc2ccc(C(=O)Nc3ccc(NC(=O)Nc4cc(C(C)(C)C)on4)cc3)nc2)CC1 | C (C > 0.05) |  |  | 
COc1cc(NC(=O)c2ccc(OC3CC(C)(C)N(C)C(C)(C)C3)cn2)ccc1NC(=O)Nc1cc(C(C)(C)C)on1 | A (A ≦ 0.03) | 3 to 10 nM | > 1000 nM | 
CC(C)(C)c1cc(NC(=O)Nc2ccc(NC(=O)c3ccc(OC4CCNCC4)cn3)cc2)no1 | C (C > 0.05) |  |  | 
CN1CCN(Cc2ccc(C(=O)Nc3ccc(NC(=O)Nc4cc(C(C)(C)C)on4)cc3)nc2)CC1 | A (A ≦ 0.03) |  |  | 
CN1C2CCC1CC(Oc1ccc(C(=O)Nc3ccc(NC(=O)Nc4cc(C(C)(C)C)on4)cc3)nc1)C2 (stereo not shown) | C (C > 0.05) | < 3 nM | ≤ 100 nM | 
CCN1CCC(Oc2ccnc(C(=O)Nc3ccc(NC(=O)Nc4cc(C(C)(C)C)on4)cc3)c2)CC1 | B (0.03 < B ≦ 0.05) |  |  | 
Cc1cc(NC(=O)Nc2cc(C(C)(C)C)on2)ccc1NC(=O)c1ccc(OC2CC(C)(C)N(C)C(C)(C)C2)cn1 | C (C > 0.05) | 3 to 10 nM | > 1000 nM | 
CC(C)(C)c1cc(NC(=O)Nc2ccc(NC(=O)c3ccc(OC4CCN(CC(F)(F)F)CC4)cn3)cc2)no1 | A (A ≦ 0.03) |  |  | 
CC1(C)CC(Oc2ccc(C(=O)Nc3ccc(NC(=O)Nc4cc(C(C)(C)C)on4)cc3)nc2)CC(C)(C)N1 | C (C > 0.05) |  |  | 
CC(C)(C)c1cc(NC(=O)Nc2ccc(NC(=O)c3ccc(OC4CCN(C(C)(C)C)CC4)cn3)cc2)no1 | B (0.03 < B ≦ 0.05) |  |  | 
CN1C(C)(C)CC(Oc2ccc(C(=O)Nc3ccc(NC(=O)Nc4cc(C(C)(C)C)on4)cc3)nc2)CC1(C)C | C (C > 0.05) |  |  | 
CC(C)N1CCC(Oc2ccc(C(=O)Nc3ccc(NC(=O)Nc4cc(C(C)(C)C)on4)cc3)nc2)CC1 | B (0.03 < B ≦ 0.05) |  |  | 
